Structures can show the parent of a compound that is named as a salt.
What was measured:
Assay type in all cases: physicochemical
[1] = Intrinsic dissolution of compressed tablet, pH 7.0, 37° C. (Sirius inForm); conditions: for Mass of salt (μg) dissolved after 2 hours, Average / Mass of salt (μg) dissolved after 2 hours, Test 1 / Mass of salt (μg) dissolved after 2 hours, Test 2: pH 7.0, 0.15 M NaCl, 37° C.
Procedure, shortened: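 Compressed 3 mm tablet (~10 mg, 100 kg load), one face exposed, dissolved in pH 7.0 aqueous medium (0.15 M NaCl, 0.01 M acetate/phosphate buffer) at 37° C., stirred at 100 rpm for 2 h. UV absorbance (<1.3) converted to dissolved weight via pH-dependent molar extinction coefficients.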

[2] = Thermal manipulation (isothermal 105° C., thermal cycle; TGA/DSC/XRPD)
Procedure: Differential Scanning calorimetry (DSC)—DSC data were collected on a PerkinElmer Pyris 4000 DSC equipped with a 45 position sample holder. The instrument was verified for energy and temperature calibration using certified indium. A predefined amount of the sample, 0.5-3.0 mg, was placed in a pin holed aluminium pan and heated at 20° C.·min^−1 from 30 to 350° C., or varied as experimentation dictated. A purge of dry nitrogen at 60 ml·min^−1 was maintained over the sample. The instrument control, data acquisition and analysis were performed with Pyris Software v9.0.1.0203.
Thermo-Gravimetric Analysis (TGA)—TGA data were collected on a PerkinElmer Pyris 1 TGA equipped with a 20 position auto-sampler. The instrument was calibrated using a certified weight and certified Alumel and Perkalloy for temperature. A predefined amount of the sample, 1-5 mg, was loaded onto a pre-tared aluminium crucible and was heated at 20° C.·min^−1 from ambient temperature to 400° C. A nitrogen purge at 20 ml·min^−1 was maintained over the sample. The instrument control, data acquisition and analysis were performed with Pyris Software v9.0.1.0203.
(§1) The nature of the hydration and a preliminary examination of salt robustness/polymorphism was assessed by thermal manipulation using ThermoGravimetric Analysis (TGA) and Gravimetric Vapor Soprtion (GVS).

[3] = Behaviour to humidity by Gravimetric Vapour Sorption (GVS); conditions: for Behaviour to humidity: GVS, 0-90% humidity, 25° C.; for water adsorbed: up to 90% humidity
Procedure: Gravimetric Vapour Sorption—Sorption isotherms were obtained using a Hiden Isochema moisture sorption analyser (model IGAsorp), controlled by IGAsorp Systems Software V6.50.48. The sample was maintained at a constant temperature (25° C.) by the instrument controls. The humidity was controlled by mixing streams of dry and wet nitrogen, with a total flow of 250 ml·min^−1. The instrument was verified for relative humidity content by measuring three calibrated Rotronic salt solutions (10-50-88%). The weight change of the sample was monitored as a function of humidity by a microbalance (accuracy+/−0.005 mg). A defined amount of sample was placed in a tared mesh stainless steel basket under ambient conditions. A full experimental cycle typically consisted of three scans (sorption, desorption and sorption) at a constant temperature (25° C.) and 10% RH intervals over a 0-90% range (60 minutes for each humidity level).
as §1

[4] = Stability assessment of RPL554 and salts: lactose powder blends (70° C., seven days); conditions: after storage at both room and elevated (70° C.) temperatures, 7 days
Procedure: A validated HPLC method (Onyx-Scientific, Final product testing monograph for RPL554) for the determination of chemical purity by HPLC was used.
The following chromatography conditions were used: Column: Waters X Bridge phenyl, 3.5 μm, 150×4.6 mm, (Part number 186003335); Diluent: Acetonitrile:Water (50:50, v/v); Mobile Phase: A—Purified Water:Trifluoroacetic acid (100:0.1); B—Acetonitrile:Trifluoroacetic acid (100:0.1); Flow Rate: 1.0 mL/min; Injection Volume: 10 μl; Detection: UV @ 254 nm; Column Temperature: 30° C.; Post Run: 5 min; Gradient: [Time (min): % A:% B]: [0: 95:5], [2: 95:5]; [15: 5:95], [20: 5:95], [22: 95:5].
Samples of 1% w/w RPL554 free base or salt variants: lactose blends were prepared and stored at elevated temperature (70° C.) for seven days, control samples were stored at ambient conditions and protected from light on the laboratory bench. All samples (approximately 0.5 g) were accurately weighed into screw cap glass scintillation vials (20 mL). For storage at elevated temperature samples were placed in an oven at 70° C. protected from light. Control sample vials were capped, protected from light and stored on the bench for 7 days.
In addition, to the RPL554 and salt variant blends, samples of lactose alone were also stored at the elevated temperature condition (control samples at ambient). The lactose only samples served as baseline data for the HPLC analysis. […]

[5] = listed as hydrochloride salt, hydrochloride
[6] = listed as ethane-1,2-disulfonate salt

With `COc1cc2c(cc1OC)-c1c/c(=N\c3c(C)cc(C)cc3C)n(CCNC(N)=O)c(=O)n1CC2` [Hydrochloride, RPL554 hydrochloride] the “Mass of salt (μg) dissolved after 2 hours, Average” value (“Mass of salt … Average” for short) [1, 5] was 35.6 µg, the “Mass of salt (μg) dissolved after 2 hours, Test 1” value (shortened to “Mass of salt … Test 1”) [1, 5] was 31.7 µg and the “Mass of salt (μg) dissolved after 2 hours, Test 2” value (shortened to “Mass of salt … Test 2”) [1, 5] was 39.4 µg. The “form change by thermal manipulation” value ([2]; below the melt endotherm) was “No form change was detected”, the Thermal cycle ([2]; hydrochloride) was “Stable form” and the Behaviour to humidity [3, 5] was “reversible adsorption and desorption over the humidity range with no hysteresis”. For the same compound, the water adsorbed [3, 5] was “up to 2 mole equivalents”.
With `COc1cc2c(cc1OC)-c1c/c(=N\c3c(C)cc(C)cc3C)n(CCNC(N)=O)c(=O)n1CC2` [Ethane-1,2-disulfonate, RPL554 ethane-1,2-disulfonate] the “Mass of salt … Average” value [1, 6] was 28.0 µg, the “Mass of salt … Test 1” value [1, 6] was 21.1 µg and the “Mass of salt … Test 2” value [1, 6] was 34.9 µg. The Behaviour to humidity [3, 6] was “reversible adsorption and desorption over the humidity range with no hysteresis”, the water uptake ([3]; to 50% humidity) was 4 mole equivalents and the water adsorbed [3, 6] was “up to 5 mole equivalents”.
In the case of `COc1cc2c(cc1OC)-c1c/c(=N\c3c(C)cc(C)cc3C)n(CCNC(N)=O)c(=O)n1CC2` [Sulfate, RPL554 sulfate], the “peak area of the RPL554, % of the total areas” value [4] was 82%, the “dissolution compared with free base / other salts” value ([1]; 2 hour experiments) was “higher dissolution than the rest of the salts” and the “dissolution behaviour over 24 hours” value ([1]; 24 hours experiment) was “did start to precipitate slowly but still remained highly supersaturated even after 24 hrs”. The “maximum pH change (decrease) during dissolution” value ([1]; nominal start pH 7, listed as sulfate salt) was “about 0.15 pH units”, the “Mass of salt … Average” value ([1]; listed as sulfate salt) was 6205 µg and the “Mass of salt … Test 1” value ([1]; listed as sulfate salt) was 5910 µg. For the same compound, the “Mass of salt … Test 2” value ([1]; listed as sulfate salt) was 6500 µg.

Reference: patent publication US11491155B2, “Salt of a pyrimido[6,1-A]isoquinolin-4-one compound” (VERONA PHARMA PLC, priority 2015, dated 2022)
